How the values were obtained:
[1] = test system: HASMC (human aortic smooth muscle cells); assay: MTS cell viability analysis, HASMC; type: cell-based
Procedure: (§1) MTS analysis was performed using CellTiter96 Aqueous Non-Radioactive Cell Proliferation Assay kit (Promega, Madison, WI, USA) as specified by the manufacturer. Cells were seeded at a density of 5,000 cells per well, and allowed to adhere overnight. Cellular viability was assessed 24 h after treatment with DMSO (control), or 10, 50, or 100 nM verticillin A, and absorbance was measured at 490 nm wavelength.
(§2) In vitro analyses were performed in triplicate. Mean ± SEM (standard error mean) calculations and statistical analyses were performed for all cell-based assays, and EC50 values were computed using GraphPad Prism version 6.00 (for Windows, GraphPad Software, La Jolla California USA, www.graphpad.com). All Student t tests performed were unpaired and two-sided. The average tumor volume (mm^3) and weight ([…]) for each study arm was measured and recorded. Mean ± SEM was calculated for each treatment group, and end-point analyses determined using unpaired two-sided t test was utilized to determine variances. *p ≤ 0.05; **p ≤ 0.01; ***p ≤ 0.001.

[2] = test system: HSC (human Schwann cells); assay: MTS cell viability analysis, HSC; type: cell-based
Procedure: as §1, §2

MPNST724 cells [3] = assay: MTS cell viability analysis, MPNST724; type: cell-based, human
Procedure: as §1, §2

S462 cells [4] = assay: MTS cell viability analysis, S462; type: cell-based, human
Procedure: as §1, §2

SKLMS1 cells [5] = assay: MTS cell viability analysis, SKLMS1; type: cell-based
Procedure: as §1, §2

LMS1 cells [6] = assay: MTS cell viability analysis, LMS1; type: cell-based
Procedure: as §1, §2

ST88 cells = assay: MTS cell viability analysis, ST88; type: cell-based, human; details: 24 h
Procedure: as §1, §2

MPNST and LMS cell lines [7] = assay: Clonogenic analysis; type: cell-based; details: all doses, 24 h treatment then 10 days recovery
Procedure: Cells were seeded at 800 cells per well in a 6-well plate (9.5 cm^2) and allowed to attach overnight prior to treatment with DMSO or varying concentrations of verticillin A. Cells were treated for 24 h, then changed to recovery media and allowed to continue to grow for 10 days. Colonies were stained using 0.5% crystal violet solution in methanol for 30 min. Staining solution was removed, wells were washed with deionized H2O, and stained colonies were imaged and counted.

MPNST and LMS cell lines [8] = assay: Cell cycle analysis (PI, FACS); type: cell-based; details: MPNST and LMS cells, 24 h treatment
Procedure: Cells were synchronized by 16 h starvation prior to treatment with DMSO, 10, 50, or 100 nM of verticillin A for 24 h. Attached and floating cells were collected following treatment and centrifuged for 5 min at 2500 RPM. Supernatant was removed and cells were washed twice with cold PBS. Cells were centrifuged (2500 RPM/5 min) and resuspended in 70% ethanol and fixed overnight at −20° C. Cells were then centrifuged at (2500 RPM/5 min), and ethanol was removed. Subsequently, cells were resuspended in 400 µL PI stain (0.05 mg/mL/ 1 mg/mL sodium citrate/ 50 µL Triton-X-100/ 50 µL RNase A, brought to 50 mL with PBS) and analyzed via LSR II FACS analysis.

HSC = assay: Cleaved caspase 3/7 activity, HSC; type: cell-based, human; details: 24 h
Procedure: (§3) Apoptosis was measured by quantifying cleaved-caspase 3 and cleaved-caspase 7 activity using Cell Event Caspase 3/7 Green Detection Reagent (Life Technologies, Carlsbad, CA, USA) in the Incucyte Zoom system (Essen BioScience, Ann Arbor, MI, USA). Cells were plated at a density of 4,200 cells per well and allowed to adhere. The cells were then treated with DMSO or 10, 50, or 100 nM verticillin A for 24 h, and caspase activity was monitored using fluorescent Cell Event Caspase 3/7 Reagent (5 µM final concentration). Endpoint analysis was performed in each well using a final concentration of 10 µM Vybrant DyeCycle Green Stain (Life Technologies, Carlsbad, CA, USA) in complete DMEM. Apoptosis was confirmed using the Apoptosis Detection Kit (BD Pharmagen, San Diego, CA, USA) in complete DMEM. Per supplier instructions, 1 × 10^6 cells/mL were stained with 5 µL Annexin V-FITC and 5 µL propidium iodide following 24 h treatment with DMSO or 10, 50, or 100 nM verticillin A and analyzed via FACS analysis (LSR II, BD Pharmagen, San Diego, CA, USA).

HASMC = assay: Cleaved caspase 3/7 activity, HASMC; type: cell-based, human; details: 24 h
Procedure: as §3

MPNST and LMS cell lines [9] = assay: Cleaved caspase 3/7 activity, MPNST and LMS cell lines; type: cell-based; details: all MPNST and LMS cell lines
Procedure: as §3

LMS1 cells [10] = assay: Annexin V/PI FACS analysis, LMS1; type: cell-based; details: LMS1, 24 h treatment, concentration not given
Procedure: as §3

MPNST724 cells [11] = assay: Annexin V/PI FACS analysis, MPNST724; type: cell-based, human; details: MPNST724, 24 h treatment, concentration not given
Procedure: as §3

SKLMS1 cells [12] = assay: Annexin V/PI FACS analysis, SKLMS1; type: cell-based; details: SKLMS1, 24 h treatment, concentration not given
Procedure: as §3

S462 cells [13] = assay: Annexin V/PI FACS analysis, S462; type: cell-based, human; details: S462, 24 h treatment, concentration not given
Procedure: as §3

MPNST724 xenografts = assay: MPNST724 xenograft model; type: in vivo, SCID mice
Procedure: Six week old female SCID mice (Taconic Biosciences, Hudson, NY, USA; model ^#CB17SC) were injected subcutaneously with 1 × 10^6 MPNST724 cells into the flank. Once tumors reached 0.5 cm, mice were allocated into three arms (10 mice per arm) and treatment via intraperitoneal injections was initiated: Vehicle (5% ethanol/15% cremophor EL/80% PBS), verticillin A (0.25 mg/kg every other day), or verticillin A (0.5 mg/kg every other day). Mice were weighed and tumors were measured twice weekly. Mice were euthanized once tumors in the control group grew to ~1.5 cm. Final tumor volumes and weights were measured, and tumors were processed for IHC analysis.
Ki67 (Vector Laboratories) and cleaved caspase 3 (Cell Signaling) antibodies were used to identify the effect of verticillin A on proliferation and apoptosis, respectively. IHC staining was conducted at Nationwide Children’s Hospital (Columbus, OH) and analysis was performed at the Polaris Innovation Center (The Ohio State University, Columbus, OH, USA). IHC samples and analyses were verified by pathologist, O. Hans Iwenofu, M.D. (The Ohio State University, Department of Pathology, Columbus, OH, USA).
as §2

SW620 colon cancer cells = test system: SW620 colon cancer cells; set-up: method as in PMID 21911457; details: cited from earlier work
[14] = test system: HepG2 liver carcinoma cells; set-up: method as in PMID 21911457; details: cited from earlier work
[15] = Homo sapiens, MTS, 24 h treatment
[16] = 0.5 mg/kg intraperitoneal every other day, day 11
[17] = MPNST724 xenograft tumors, 0.5 mg/kg

CN1C(=O)C23SSC1(C)C(=O)N2C1Nc2ccccc2C1(C12c4ccccc4NC1N1C(=O)C4(C)SSC1(C(=O)N4C)C2O)C3O (stereo not shown) [verticillin A]
effect on cell viability ([1]; 100 nM): no effect | EC50 [1, 15]: 251 nM | EC50 [2, 15]: 64.9 nM | toxicity to normal cells ([2]; highest treatment dose): toxicity was seen | EC50 (MPNST724 cells [3]; Homo sapiens, MPNST724, MTS, 24 h treatment): 125 nM | effect on cell viability (MPNST724 cells [3]; MPNST724, 10 nM, 24 h): exhibited tolerance | cellular growth reduction (MPNST724 cells [3]; MPNST724, 100 nM, 24 h): 39.7% | EC50 (S462 cells [4]; Homo sapiens, S462, MTS, 24 h treatment): 26 nM | effect on cell viability (S462 cells [4]; S462, 10 nM, 24 h): marked inhibitory effect | cellular growth reduction (S462 cells [4]; S462, 100 nM, 24 h): 88.7% | EC50 (SKLMS1 cells [5]; Homo sapiens, SK-LMS-1, SKLMS1, MTS, 24 h treatment): 74.6 nM | effect on cell viability (SKLMS1 cells [5]; SKLMS1, 10 nM, 24 h): exhibited tolerance | cellular growth reduction (SKLMS1 cells [5]; SKLMS1, 100 nM, 24 h): 57% | effect on cell viability (LMS1 cells [6]; LMS1, 10 nM, 24 h): marked inhibitory effect | cellular growth reduction (LMS1 cells [6]; LMS1, 100 nM, 24 h): 96.7% | EC50 (LMS1 cells [6]; LMS1, MTS, 24 h treatment): 10.7 nM | effect on cell viability (ST88 cells; ST88, 10 nM): marked inhibitory effect | cellular growth reduction (ST88 cells; ST88, 100 nM): 72.7% | colony formation capacity (MPNST and LMS cell lines [7]): unable to form colonies | cell cycle arrest (MPNST and LMS cell lines [8]): No substantial arrest in cell cycle progression | cleaved caspase 3/7 activity (HSC): 1.1 fold change | cleaved caspase 3/7 activity (HASMC): 1.2 fold change | increase in cleaved caspase 3/7 activity (MPNST and LMS cell lines [9]): nearly two-fold increase | apoptosis (Annexin V/PI) (LMS1 cells [10]): 73.4 ± 12.7% | apoptosis (Annexin V/PI) (MPNST724 cells [11]): 34 ± 4.3% | apoptosis (Annexin V/PI) (SKLMS1 cells [12]): 29.4 ± 2.3% | apoptosis (Annexin V/PI) (S462 cells [13]): 25.9 ± 3.75% | tumor volume (MPNST724 xenografts; 0.25 mg/kg intraperitoneal every other day, day 11): 355.89 mm^3 | verticillin A-induced mortality (MPNST724 xenografts; 0.5 mg/kg arm, 10 mice per arm): 2 mice | toxicity signs in mice (MPNST724 xenografts; 0.5 mg/kg intraperitoneal every other day): reduced grooming tendencies and mild weight loss | tumor volume (MPNST724 xenografts; [16]): 160.92 mm^3 | tumor weight (MPNST724 xenografts; [16]): 0.2 g | decrease in Ki67 proliferation marker expression (IHC) (MPNST724 xenografts; [17]): ~40% | increase in cleaved caspase 3 expression (IHC) (MPNST724 xenografts; [17]): 5.5 fold | toxicity signs in mice (MPNST724 xenografts; lower dose (0.25 mg/kg)): Minor signs of toxicity | cell cycle effect (SW620 colon cancer cells): induce G2 cell cycle arrest | cell cycle effect [14]: no changes in cell cycle progression

From article PMC5295762, “Verticillin A Inhibits Leiomyosarcoma and Malignant Peripheral Nerve Sheath Tumor Growth via Induction of Apoptosis” (Clinical & experimental pharmacology, 2016)
